Assay results taken from patent US20230348362A1, “LIPID COMPOUNDS AND LIPID NANOPARTICLE COMPOSITIONS” (Suzhou Abogen Biosciences Co., Ltd., priority 2021, published 2023).

Experiments:
Assay type in all cases: physicochemical
[1] = Encapsulation efficiency of lipid nanoparticles, Quant-it Ribogreen RNA assay; conditions: LNP of lipid/DSPC/cholesterol/PEG-lipid 50:10:38.5:1.5 encapsulating hEPO mRNA
In short: (§1)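 LNPs made from ionizable lipid/DSPC/cholesterol/PEG-lipid (50:10:38.5:1.5) and mRNA in citrate pH 4 by microfluidic mixing, lipid:mRNA about 10:1–30:1 w/w, then dialysed into DPBS and filtered. Size and PDI measured by DLS in backscatter mode; encapsulation efficiency measured by RiboGreen assay.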

[2] = Apparent pKa of LNP formulations, TNS fluorescence assay; conditions: LNP cationic lipid/DSPC/cholesterol/DMG-PEG 50/10/38.5/1.5 mol %
Experimental: As reported in literature, the apparent pKa of LNP formulations correlates with the delivery efficiency of LNPs for nucleic acids in vivo. The apparent pKa of each formulation was determined using an assay based on fluorescence of 2-(p-toluidino)-6-napthalene sulfonic acid (TNS). LNP formulations comprising of cationic lipid/DSPC/cholesterol/DMG-PEG (50/10/38.5/1.5 mol %) in PBS were prepared as described above. TNS was prepared as a 300 μM stock solution in distilled water. LNP formulations were diluted to 0.1 mg/mL total lipid in 3 mL of buffered solutions containing 50 mM sodium citrate, 50 mM sodium phosphate, 50 mM sodium borate, and 30 mM sodium chloride where the pH ranged from 3 to 9. An aliquot of the TNS solution was added to give a final concentration of […] and following vortex mixing fluorescence intensity was measured at room temperature in a Molecular Devices Spectramax iD3 spectrometer using excitation and mission wavelengths of 325 nm and 435 nm. A sigmoidal best fit analysis was applied to the fluorescence data and the pKa value was measured as the pH giving rise to half-maximal fluorescent intensity.

[3] = Lipid nanoparticle size and polydispersity by dynamic light scattering; conditions: LNP of lipid/DSPC/cholesterol/PEG-lipid 50:10:38.5:1.5 encapsulating hEPO mRNA
In short: as §1

Structure (SMILES) | Encapsulation Efficiency [1] [%] | Apparent Pka [2] | polydispersity [3] | size (nm) [3] [nm]
CCCCCCCCC(CCCCCCCC)COC(=O)CCCCCN(C/C=C/CN(CCCCCC(=O)OCC(CCCCCCCC)CCCCCCCC)C1CCC1)CCO [Compound 65] | 93.10 | 6.443 | 0.044 | 104.2
CCCCCCCCC(CCCCCCCC)COC(=O)CCCCCN(CCO)CCN(CCCCCC(=O)OCC(CCCCCCCC)CCCCCCCC)C1CCC(F)(F)CC1 [Compound 66] | 93.17 | 6.009 | 0.068 | 56.3
CCCCCCCCC(CCCCCCCC)COC(=O)CCCCCN(CCO)CCN(CCCCCC(=O)OCC(CCCCCCCC)CCCCCCCC)C1CC(OC)C1 (centres unmarked) [Compound 67] | 95.1 | 5.980 | 0.023 | 75.57
CCCCCCCCC(CCCCCCCC)CC(=O)NCCCCCN(CCN(CCO)CCCCCCOC(=O)C(CCCCCC)CCCCCCCC)C1CCC1 (centres unmarked) [Compound 70] | 91.32 | 6.732 | 0.005 | 126
CCCCCCCCC(CCCCCCCC)CC(=O)NCCCCCN(CCN(CCO)CCCCCOC(=O)CC(CCCCCCCC)CCCCCCCC)C1CCCC1 [Compound 72] | 92.60 | 6.633 | 0.033 | 74.18
CCCCCCCCC(CCCCCCCC)CC(=O)NCCCCCN(CCN(CCO)CCCCCOC(=O)CC(CCCCCCCC)CCCCCCCC)C1CCCCC1 [Compound 73] | 92.38 | 6.597 | 0.049 | 88.45
CCCCCCCCC(CCCCCCCC)CNC(=O)CCCCCN(CCN(CCCO)CCCCCC(=O)OCC(CCCCCCCC)CCCCCCCC)C1CCC1 [Compound 76] | 92.30 | 6.322 | 0.036 | 84.12
CCCCCCCCC(CCCCCCCC)CNC(=O)CCCCCN(CCN(CCCCO)CCCCCC(=O)OCC(CCCCCCCC)CCCCCCCC)C1CCC1 [Compound 77] | 92.71 | 6.485 | 0.006 | 84.87
CCCCCCCCC(CCCCCCCC)CNC(=O)CCCCCN(CCN(CCCCCCCCCO)CCCCCC(=O)OCC(CCCCCCCC)CCCCCCCC)C1CCC1 [Compound 78] | 88.18 | 6.195 | 0.019 | 100.3
CCCCCCCCC(CCCCCCCC)COC(=O)CCCCCN(C)CCN(CCCCCC(=O)OCC(CCCCCCCC)CCCCCCCC)CCNc1c(NC)c(=O)c1=O [Compound 79] | 96.26 | 6.914 | 0.104 | 69.09
CCCCCCCCC(CCCCCCCC)COC(=O)CCCCCN(CCNc1c(NC)c(=O)c1=O)CCN(CCCCCC(=O)OCC(CCCCCCCC)CCCCCCCC)C1CCC1 [Compound 81] | 91.82 | 6.298 | 0.051 | 55.27
CCCCCCCCCCCOC(=O)CCCCCN(CCN(CCCCCC(=O)OCC(CCCCCCCC)CCCCCCCC)CCNc1c(NC)c(=O)c1=O)C1CCC1 [Compound 82] | 91.54 | 6.599 | 0.066 | 67.32
CCCCCCCCC(CCCCCCCC)COC(=O)CCCCCN(CCO)CCN(CCCCCOC(=O)CCCCCC(CCCCCC)CCCCCC)C1CCC1 [Compound 83] | 92.51 | 6.233 | 0.032 | 87.87

Next, values leading:

Encapsulation Efficiency [1] [%] | Apparent Pka [2] | polydispersity [3] | size (nm) [3] [nm] | Structure (SMILES)
91.88 | 6.117 | 0.097 | 59.91 | CCCCCCCCC(CCCCCCCC)COC(=O)CCCCCN(CCO)CCN(CCCCCCOC(=O)C(CCCCCCCC)CCCCCCCC)C1CCC1 [Compound 84]
93.27 | 6.126 | 0.096 | 67.44 | CCCCCCCCC(CCCCCCCC)COC(=O)CCCCCN(CCNc1c(N(C)C)c(=O)c1=O)CCN(CCCCCC(=O)OCC(CCCCCCCC)CCCCCCCC)C1CCC1 [Compound 85]
95.02 | 6.814 | 0.043 | 86.61 | CCCCCCCCC(CCCCCCCC)COC(=O)CCCCCN(CCO)CCCCN(CCCCCC(=O)OCC(CCCCCCCC)CCCCCCCC)C1CCC1 [Compound 86]
93.34 | 6.476 | 0.055 | 70.07 | CCCCCCCCC(CCCCCCCC)COC(=O)CCCCCN(CCO)CCN(CCCCCOC(=O)CCCCC=C(CCCCCC)CCCCCC)C1CCC1 [Compound 87]
89.05 | 6.745 | 0.086 | 81.46 | CCCCCCCCCCCCCCN(CCCCCCCCCCCCCC)C(=O)CCCCCN(CCO)CCN(CCCCCC(=O)OCCCCCCCCCCC)C1CCCCC1 [Compound 89]
87.92 | 6.042 | 0.115 | 64.49 | CCCCCCCCCCCC(=O)OCCCCCN(CCN(CCO)CCCCCOC(=O)CC(CCCCCCCC)CCCCCCCC)C1CC1 [Compound 91]
91.34 | 6.582 | 0.014 | 80.12 | CCCCCCCCCCCC(=O)OCCCCCN(CCN(CCO)CCCCCOC(=O)CC(CCCCCCCC)CCCCCCCC)C1CCC1 [Compound 92]
90.26 | 6.448 | 0.061 | 58.34 | CCCCCCCCCCCC(=O)OCCCCCN(CCN(CCO)CCCCCOC(=O)CC(CCCCCCCC)CCCCCCCC)C1CCCCCC1 [Compound 94]
92.04 | 6.271 | 0.103 | 55.48 | CCCCCCCCCCCC(=O)OCCCCCN(CCN(CCO)CCCCCOC(=O)CC(CCCCCCCC)CCCCCCCC)C1CCCCCCC1 [Compound 95]
97.00 | 7.287 | 0.087 | 57.20 | CCCCCCCCC(CCCCCCCC)CNC(=O)CCCCCN(CCNc1c(NC)c(=O)c1=O)CCN(C)CCCCCC(=O)OCC(CCCCCCCC)CCCCCCCC [Compound 96]
88.12 | 6.912 | 0.045 | 76.13 | CCCCCCCCCCCC(=O)OCCCCCN(CCN(CCO)CCOCCOC(=O)CC(CCCCCCCC)CCCCCCCC)C1CCC1 [Compound 97]
87.20 | 6.423 | 0.078 | 98.67 | CCCCCCCCC(CCCCCCCC)COC(=O)CCCCCN(CCO)CCN(CCCCCC(=O)OCCCCCC)C1CCCCC1 [Compound 101]
90.14 | 6.407 | 0.082 | 77.17 | CCCCCCCCCOC(=O)CCCCCN(CCN(CCO)CCCCCC(=O)OCC(CCCCCCCC)CCCCCCCC)C1CCCCC1 [Compound 102]
